This is an account of results in US20260001876A1, “Compounds and Their Use as PDE4 Activators” (Mironid Limited, priority 2022, published 2026).

This assay relates to m-IMCD3 cells. Put plainly: Inhibition of PGE2-stimulated in vitro cyst formation in m-IMCD3 cells (3D culture). It counts as cell-based. Particulars: Mus musculus, mIMCD3, 144 h; 10 μM; mean cyst area; 100% for (DMSO + PGE2) and 0% for DMSO control; 6 days of culture; read-out: % Cyst area* after incubation with 10 μM test compound. The protocol:
HEK 293 and MDCK cells (Public Health England, Cell Culture Collections) were maintained in Dulbecco's Modified Eagle's Medium (DMEM) supplemented with 10% (v/v) fetal bovine serum (FBS) (Seralab), 2 mM L-glutamine and 100 U/mL penicillin streptomycin cocktail (ThermoFisher); termed complete media. Clonal HEK 293 cell lines were maintained in complete media supplemented with 0.6 mg/ml G418 (Enzo Life Sciences). Mouse inner medullary collecting duct (m-IMCD3) cells [American Type Culture Collection (ATCC)] were maintained in media consisting of DMEM/Hams F-12 50/50 Mix (DMEM F12; Corning) supplemented with penicillin streptomycin cocktail (100 U/mL) and FBS (10% v/v) (DMEM F12-10% FBS).
Experiment 3: Inhibition of In Vitro Cyst Formation in m-IMCD3 Cells Treated with PDE4 Long Form Activators
The mouse Inner Medullary Collecting Duct cell line (m-IMCD3) spontaneously forms cystic spheroids in 3D culture with a Type 1 collagen/Matrigel extracellular matrix. This process can be stimulated with agents which raise intracellular cAMP and is used as an in vitro model for the formation of cystic structures in the kidneys of patients with ADPKD.
Rat Collagen I (Fisher Scientific) is prepared on ice by neutralising with 1M NaOH and diluting with a 2× volume of DMEM/F12+10% FBS. This is mixed 1:1.1 with ice cold Matrigel (Corning) for coating plates (coating mix), and 1:0.93 with Matrigel for cell plating (plating mix).
The assay is conducted in the wells of a 96-well plate culture dish using a total volume of 130 μL of collagen/Matrigel/DMEM F12-10% FBS suspension in growth media for each matrix plug per individual well. Initially, 30 μL of collagen/Matrigel/DMEM F12-10% FBS (coating mix) is added into the well of a 96 well plate and the collagen is set to a gel by incubating at 37° C. for at least 15 minutes. A second layer of 100 μL collagen/Matrigel suspension (plating mix) containing m-IMCD3 cells (2.75×10^6 m-IMCD3 cells per 96-well plate) is layered over the coating mix and the collagen/Matrigel/cell mix again set to a gel by incubating at 37° C. Cell cultures are maintained at 37° C. in an atmosphere of 5% CO2, 95% air.
Between 18 and 24 h after plating, test compound(s) as DMSO stock solutions [0.1% (v/v) final DMSO concentration] and PGE2 (100 nM final concentration) in DMEM F12-10% FBS are added in quadruplicate wells per condition. Media, together with the test compound and PGE2 are replenished after 2 or 3 days. After 6 days of culture z stack images of the wells are captured using the Nikon Eclipse Ti2-E microscope. Nikon General Analysis software is used to measure the following parameters in each well: the mean cyst area, the number of cysts, and the total cyst area.
PDE4 long form activators inhibited in vitro cyst formation in m-IMCD3 cells. Data are shown in Table 4 as mean cyst area (%), compared to 100% for (DMSO+PGE2) and 0% for DMSO control.
As for `O=C(CC1CCCC1)N1CCc2nc(N3CCN[C@@H](CO)C3)ccc2C1` (single isomer, unassigned) [Example 131], the activity at 10 µM is -4%.

As for `O=C(CC1CCCC1)N1CCc2nc(N3CCN[C@H](CO)C3)ccc2C1` (single isomer, unassigned) [Example 132], the activity at 10 µM was -4%.

In the case of `O=C(CC1CCCC1)N1CCc2nc(N3C4CCC3CNC4)ccc2C1` [Example 39, 1-(2-(3,8-diazabicyclo[3.2.1]octan-8-yl)-7,8-dihydro-1,6-naphthyridin-6(5H)-yl)-2-cyclopentylethan-1-one], the activity at 10 µM was found to be 5%.

For the compound `O=C(COc1ccccc1)N1CCc2nc(N3C4CCC3CNC4)ccc2C1` [Example 41, 1-(2-(3,8-diazabicyclo[3.2.1]octan-8-yl)-7,8-dihydro-1,6-naphthyridin-6(5H)-yl)-2-phenoxyethan-1-one], the activity at 10 µM is 4%.

In the case of `CC(C)CC(=O)N1CCc2nc(N3C4CCC3CNC4)ccc2C1` [Example 43, 1-(2-(3,8-diazabicyclo[3.2.1]octan-8-yl)-7,8-dihydro-1,6-naphthyridin-6(5H)-yl)-3-methylbutan-1-one], the activity at 10 µM is -4%.

In the case of `CC(C)C(C)C(=O)N1CCc2nc(N3C4CCC3CNC4)ccc2C1` (centres unmarked) [Example 44, 1-(2-(3,8-diazabicyclo[3.2.1]octan-8-yl)-7,8-dihydro-1,6-naphthyridin-6(5H)-yl)-2,3-dimethylbutan-1-one], the activity at 10 µM is -2%.

For `O=C(C1CCCC1)N1CCc2nc(N3C4CCC3CNC4)ccc2C1` [Example 47, (2-(3,8-diazabicyclo[3.2.1]octan-8-yl)-7,8-dihydro-1,6-naphthyridin-6(5H)-yl)(cyclopentyl)methanone], the activity at 10 µM is 5%.

As to `O=C(NC1CCC(F)(F)CC1)N1CCc2nc(N3C4CCC3CNC4)ccc2C1` [Example 59, 2-(3,8-diazabicyclo[3.2.1]octan-8-yl)-N-(4,4-difluorocyclohexyl)-7,8-dihydro-1,6-naphthyridine-6(5H)-carboxamide], the activity at 10 µM is -4%.

On to `O=C(N1CCCC1)N1CCc2nc(N3C4CCC3CNC4)ccc2C1` [Example 61, (2-(3,8-diazabicyclo[3.2.1]octan-8-yl)-7,8-dihydro-1,6-naphthyridin-6(5H)-yl)(pyrrolidin-1-yl)methanone], for which the activity at 10 µM amounted to 3%.

For `CN(C(=O)N1CCc2nc(N3C4CCC3CNC4)ccc2C1)C1CCCC1` [Example 63, 2-(3,8-diazabicyclo[3.2.1]octan-8-yl)-N-cyclopentyl-N-methyl-7,8-dihydro-1,6-naphthyridine-6(5H)-carboxamide], the activity at 10 µM stood at 2%.

As for `CCN(C(=O)N1CCc2nc(N3C4CCC3CNC4)ccc2C1)C1CCCC1` [Example 64, 2-(3,8-diazabicyclo[3.2.1]octan-8-yl)-N-cyclopentyl-N-ethyl-7,8-dihydro-1,6-naphthyridine-6(5H)-carboxamide], the activity at 10 µM was 0%.

`O=C(CC1CCC(F)(F)CC1)N1Cc2ccc(N3C4CCC3CNC4)nc2C1` [Example 87, 1-(2-(3,8-diazabicyclo[3.2.1]octan-8-yl)-5,7-dihydro-6H-pyrrolo[3,4-b]pyridin-6-yl)-2-(4,4-difluorocyclohexyl)ethan-1-one]: the activity at 10 µM is 0%.

For the compound `O=C(NC1CCC(F)(F)CC1)N1Cc2ccc(N3C4CCC3CNC4)nc2C1` [Example 89, 2-(3,8-diazabicyclo[3.2.1]octan-8-yl)-N-(4,4-difluorocyclohexyl)-5,7-dihydro-6H-pyrrolo[3,4-b]pyridine-6-carboxamide], the activity at 10 µM was found to be 2%.

Turning to `CN1CC2CCC(C1)N2c1ccc2c(n1)CN(C(=O)CC1CCC(F)(F)CC1)C2` [Example 93, 2-(4,4-difluorocyclohexyl)-1-(2-(3-methyl-3,8-diazabicyclo[3.2.1]octan-8-yl)-5,7-dihydro-6H-pyrrolo[3,4-b]pyridin-6-yl)ethan-1-one], the activity at 10 µM is -3%.
